Results from patent publication US20060030017A1, “Three-dimensional structure of c-Abl” (priority 2004, published 2006).

Target: T1, c-Abl protein tyrosine kinase (Homo sapiens, UniProt P00519)
T1 construct: c-Abl Kinase Fragment, Amino Acids 218-500; Factor Xa cleavage site (IEGR) (N); made in house; host or cells: baculovirus / Sf9 insect cells
T1 sequence (P00519 with tags, fused parts or gaps): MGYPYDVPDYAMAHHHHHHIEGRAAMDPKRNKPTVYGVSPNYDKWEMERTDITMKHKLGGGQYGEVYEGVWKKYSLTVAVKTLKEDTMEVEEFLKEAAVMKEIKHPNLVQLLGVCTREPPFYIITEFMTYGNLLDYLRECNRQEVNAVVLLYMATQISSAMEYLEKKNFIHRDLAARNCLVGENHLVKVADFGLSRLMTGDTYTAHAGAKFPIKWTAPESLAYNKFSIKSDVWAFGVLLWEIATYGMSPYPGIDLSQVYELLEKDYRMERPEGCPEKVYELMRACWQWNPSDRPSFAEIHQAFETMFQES
Assay: c-Abl protein tyrosine kinase filter binding assay ([32P]-ATP, Poly-AEKY substrate)
Type: biochemical
Conditions: hit from HTD; in vitro confirmation test described, IC50 not given
Method: The top scoring poses are evaluated interactively using molecular graphics to select those compounds which formed favorable intermolecular hydrogen bonds and van der Waals interactions with the c-Abl kinase receptor model, as well as to eliminate compounds containing cis-amides and non-aromatic tautomers. Compounds are also selected for desirable drug-like properties, such as size, lipophilicity and chemical stability. The resulting “hit” compounds are confirmed as leads for drug optimization, by their in vitro evaluation in a test for activity against c-Abl protein tyrosine kinase. The test is conducted as a filter binding assay as follows: The His-tagged kinase domain of c-Abl is cloned and expressed in the baculovirus/Sf9 system. See Bhat et al., J Biol Chem, Vol. 27, pp. 16170-16175 (1997). […] Membranes are counted after drying at ambient temperature, mounting in Packard TopCount 96-well frame, and addition of 10 μL/well of Microscint™ (Packard). The activity of the compounds is quantified as IC50 and IC90 values, as determined from their dose response curves by graphical extrapolation. Thus, IC50 values are determined by linear regression analysis of the percentages for the inhibition of each compound in at least four concentrations (as a rule 0.01, 0.1, 1.0 and […]).

inhibition of c-Abl kinase (hit identified by virtual screening): specific inhibitors of c-Abl kinase
Compound: COc1cccc(-n2cc(-c3cccc(OCCNCCO)c3)c3ncnc(N)c32)c1 [2-[[2-[3-[4-amino-5-(3-methoxyphenyl)-5H-pyrrolo[3,2-d]pyrimidin-7-yl]phenoxy]ethyl]amino]-ethanol]
